The supplement of paper PMC10307832

How the values were obtained:
Experiment in all cases: relative viability (nuclei count vs DMSO), 5 days (fraction); higher = more cells survive
[1] = compound: COc1cc(-c2nn([C@H]3CC[C@H](N4CCN(C(C)=O)CC4)CC3)c3ncnc(N)c23)ccc1NC(=O)c1cc2ccccc2n1C + N=C(N)NC(=N)NCCc1ccccc1 [Phenformin] (partner 250 µM)
Outline: (§1)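 The day after seeding in 1536-well plates, lung cancer cell lines were treated by pin tool with a single drug, or with a fixed anchor-drug dose together with five library-drug doses (not always all listed) in √10 steps. After 5 days, a combined fix-and-stain solution (final 0.05% Triton X-100, 1% formaldehyde, 1 ug/ml Hoechst) was added. Nuclei counted on 4× images gave relative viability as treated counts over vehicle counts, reported as the median of duplicate plates.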

[2] = compound: CO[C@@H]1[C@H](N(C)C(=O)c2ccccc2)C[C@H]2O[C@]1(C)n1c3ccccc3c3c4c(c5c6ccccc6n2c5c31)C(=O)NC4 [Midostaurin] + CS(=O)(=O)CCNCc1ccc(-c2ccc3ncnc(Nc4ccc(OCc5cccc(F)c5)c(Cl)c4)c3c2)o1 [Lapatinib] (partner 2 µM)
Outline: as §1

[3] = compound: CO[C@@H]1[C@H](N(C)C(=O)c2ccccc2)C[C@H]2O[C@]1(C)n1c3ccccc3c3c4c(c5c6ccccc6n2c5c31)C(=O)NC4 [Midostaurin] + Cc1nc(NC(=O)N2CCC[C@H]2C(N)=O)sc1-c1ccnc(C(C)(C)C(F)(F)F)c1 [Alpelisib] (partner 2 µM)
Outline: as §1

[4] = compound: CO[C@@H]1[C@H](N(C)C(=O)c2ccccc2)C[C@H]2O[C@]1(C)n1c3ccccc3c3c4c(c5c6ccccc6n2c5c31)C(=O)NC4 [Midostaurin] + Cc1nc(Nc2ncc(C(=O)Nc3c(C)cccc3Cl)s2)cc(N2CCN(CCO)CC2)n1 [Dasatinib] (partner 0.075 µM)
Outline: as §1

[5] = compound: COc1cc(-c2nn([C@H]3CC[C@H](N4CCN(C(C)=O)CC4)CC3)c3ncnc(N)c23)ccc1NC(=O)c1cc2ccccc2n1C + COc1cc2c(Oc3ccc(NC(=O)C4(C(=O)Nc5ccc(F)cc5)CC4)cc3F)ccnc2cc1OCCCN1CCOCC1 [Foretinib] (partner 0.25 µM)
Outline: as §1

| Cell Line | relative viability ([1]; first compound 0.0128 µM) | relative viability ([1]; first compound 0.04048 µM) | relative viability ([1]; first compound 0.128 µM) | relative viability ([1]; first compound 1.28 µM) | relative viability ([2]; first compound 0.01 µM) | relative viability ([2]; first compound 0.03162 µM) | relative viability ([2]; first compound 0.1 µM) | relative viability ([2]; first compound 0.3162 µM) | relative viability ([3]; first compound 0.01 µM) | relative viability ([3]; first compound 0.03162 µM) | relative viability ([3]; first compound 0.1 µM) | relative viability ([3]; first compound 0.3162 µM) | relative viability ([4]; first compound 0.01 µM) | relative viability ([4]; first compound 0.03162 µM) | relative viability ([4]; first compound 0.1 µM) | relative viability ([4]; first compound 0.3162 µM) | relative viability ([5]; first compound 0.0128 µM) | relative viability ([5]; first compound 0.04048 µM) | relative viability ([5]; first compound 0.128 µM) | relative viability ([5]; first compound 1.28 µM) |
| --- | --- | --- | --- | --- | --- | --- | --- | --- | --- | --- | --- | --- | --- | --- | --- | --- | --- | --- | --- | --- |
| NCI-H1993 | 0.539 | 0.509 | 0.486 | 0.488 | 0.831 | 0.805 | 0.809 | 0.79 | 0.714 | 0.657 | 0.675 | 0.643 | 0.65 | 0.608 | 0.668 | 0.419 | 0.747 | 0.743 | 0.784 | 0.556 |
| NCI-H2009 | 0.517 | 0.433 | 0.511 | 0.515 | 0.811 | 0.823 | 0.902 | 0.861 | 1.24 | 1.01 | 1.05 | 1.16 | 0.33 | 0.268 | 0.254 | 0.21 | 1.22 | 1.12 | 1.22 | 0.896 |
| NCI-H2023 | 0.404 | 0.426 | 0.355 | 0.323 | 0.851 | 0.621 | 0.777 | 0.555 | 0.608 | 0.563 | 0.526 | 0.583 | 0.585 | 0.691 | 0.539 | 0.443 | 0.802 | 0.804 | 0.717 | 0.535 |
| NCI-H2085 | 0.756 | 0.655 | 0.781 | 0.654 | 0.759 | 0.857 | 0.823 | 0.639 | 0.961 | 0.9 | 0.907 | 0.788 | 0.29 | 0.273 | 0.26 | 0.236 | 1.12 | 0.876 | 0.834 | 0.691 |
| NCI-H2087 | 0.505 |  | 0.529 | 0.462 | 1.09 | 0.889 | 1.02 | 1.4 | 1.2 | 0.978 | 1.05 | 1.06 | 1.03 | 0.757 | 0.917 | 0.777 | 1.25 |  | 1.11 | 0.948 |
| NCI-H2126 | 0.534 | 0.501 | 0.539 | 0.435 | 0.753 | 0.687 | 0.808 | 0.833 | 0.772 | 0.733 | 0.765 | 0.804 | 0.623 | 0.502 | 0.596 | 0.644 | 1.34 | 1 | 1.11 | 0.983 |
| NCI-H2170 | 0.437 | 0.412 | 0.405 | 0.377 | 0.29 | 0.259 | 0.255 | 0.285 | 0.828 | 0.856 | 0.722 | 0.707 | 0.572 | 0.55 | 0.512 | 0.735 | 1.09 | 1.01 | 0.991 | 0.97 |
| NCI-H2228 | 0.278 | 0.26 | 0.327 | 0.327 | 0.966 | 1.07 | 1.23 | 0.972 | 0.891 | 0.762 | 0.7 | 0.695 | 0.501 | 0.622 | 0.534 | 0.526 | 0.92 | 1.05 | 0.825 | 0.622 |
| NCI-H2347 | 0.51 |  | 0.482 | 0.346 | 0.883 | 0.863 | 0.956 | 1.11 | 0.995 | 0.988 | 0.964 | 0.992 | 0.328 | 0.305 | 0.281 | 0.327 | 0.788 | 0.781 | 0.864 | 0.834 |
| NCI-H2405 | 0.408 | 0.272 | 0.409 | 0.28 | 1.03 | 1.27 |  | 1.11 | 0.87 | 0.903 |  | 0.573 | 0.216 | 0.199 | 0.212 | 0.201 | 1.09 | 0.855 | 1.04 | 0.535 |
| NCI-H3122 | 0.397 | 0.35 | 0.359 | 0.27 | 0.981 | 1.02 | 0.957 | 1.02 | 0.86 | 0.683 | 0.924 | 0.878 | 0.779 | 0.698 | 0.731 | 0.978 | 1.02 |  | 0.877 | 0.777 |
| PC-3 [JPC-3] | 0.488 | 0.474 | 0.461 | 0.512 | 0.432 | 0.439 | 0.488 | 0.43 | 1 | 0.925 | 1.02 | 1.04 | 0.952 | 0.893 | 1.07 | 1.01 | 1.07 | 1.14 | 1 | 1.06 |
| PC-14 | 0.646 | 0.599 | 0.581 | 0.751 | 0.345 | 0.289 | 0.302 | 0.266 | 0.827 | 0.896 | 0.891 | 0.785 | 0.251 | 0.253 | 0.218 | 0.182 | 0.956 | 1.06 | 0.885 | 0.979 |
| RERF-LC-KJ | 0.377 | 0.448 | 0.413 | 0.379 | 0.881 | 0.91 | 0.907 | 0.922 | 0.846 | 1.02 | 0.924 | 0.969 | 0.848 | 0.934 | 0.876 | 0.709 | 0.867 | 0.957 | 0.838 | 0.864 |
| SK-LU-1 | 0.588 | 0.425 | 0.48 | 0.338 | 0.806 | 1.17 | 0.823 | 0.572 | 0.913 | 1.17 | 0.894 | 0.647 | 0.198 | 0.191 | 0.176 | 0.175 | 0.769 | 0.798 | 0.691 | 0.376 |
| SK-MES-1 | 0.785 | 0.708 | 0.587 | 0.631 | 0.455 | 0.439 | 0.395 | 0.491 | 0.886 | 0.818 | 0.986 | 0.671 | 0.309 | 0.36 | 0.393 | 0.237 | 0.894 | 1.14 | 0.986 | 1 |
| SW 1573 | 0.344 | 0.34 | 0.371 | 0.399 | 1.2 | 1.17 | 1.06 | 1.07 | 0.73 | 0.721 | 0.805 | 0.618 | 0.534 | 0.548 | 0.456 | 0.161 | 0.808 | 0.869 | 0.887 | 0.728 |
